From patent publication US11267811B2, “Small molecule inhibitors of galectin-3” (BRISTOL-MYERS SQUIBB COMPANY, priority 2017, dated 2022)

Target: His-tagged recombinant human Gal-3 (hGal-3) (Homo sapiens (Human), UniProt P17931)
Assay: Gal-3 HTRF assay (His-tagged hGal-3 binding to B-ASF);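 note: compounds preincubated 30 min with hGal-3, then 1 h with B-ASF, detection via terbium anti-His antibody and streptavidin d2. Control with B-ASF counts as full signal, omitting B-ASF as background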
Conditions: read-out: hGal IC50

Chain of His-tagged recombinant human Gal-3 (hGal-3) (P17931 whole entry): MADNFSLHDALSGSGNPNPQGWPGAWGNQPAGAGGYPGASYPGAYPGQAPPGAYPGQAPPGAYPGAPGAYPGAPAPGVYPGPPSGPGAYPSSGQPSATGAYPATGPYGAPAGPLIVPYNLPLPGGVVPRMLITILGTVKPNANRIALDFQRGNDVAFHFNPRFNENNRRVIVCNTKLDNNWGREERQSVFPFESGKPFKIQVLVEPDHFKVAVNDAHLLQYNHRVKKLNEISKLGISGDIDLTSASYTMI

Row | SMILES | IC50
1 | Cc1nc([C@@H]2O[C@H](CO)[C@H](O)[C@H](n3cc(-c4ccc(F)c(Cl)c4)nn3)[C@H]2O)n(-c2cc(Cl)ccc2C(F)(F)F)n1 [Example A50] | 52 nM
2 | Cc1nc([C@@H]2O[C@H](CO)[C@H](O)[C@H](n3cc(-c4cc(F)c(Cl)c(F)c4)nn3)[C@H]2O)n(-c2cc(Cl)c(Cl)cc2Cl)n1 [Example A53] | 58 nM
3 | Cc1nc([C@@H]2O[C@H](CO)[C@H](O)[C@H](n3cc(-c4cc(F)c(Cl)c(Cl)c4)nn3)[C@H]2O)n(-c2cc(Cl)ccc2C(F)(F)F)n1 [Example A55] | 20 nM
4 | Cc1nc([C@@H]2O[C@H](CO)[C@H](O)[C@H](n3cc(-c4ncc(Cl)cc4F)nn3)[C@H]2O)n(-c2cc(Cl)ccc2C(F)(F)F)n1 [Example A59] | 158 nM
5 | Cc1nc([C@@H]2O[C@H](CO)[C@H](O)[C@H](n3cc(-c4cc(F)c(Cl)c(F)c4)nn3)[C@H]2O)n(-c2cc(Cl)ccc2C(F)F)n1 [Example A60] | 36 nM
6 | Cc1nc([C@@H]2O[C@H](CO)[C@H](O)[C@H](n3cc(-c4ccc(Br)c(F)c4)nn3)[C@H]2O)n(-c2cc(Cl)ccc2C(F)F)n1 [Example A61] | 49 nM
7 | Cc1nc([C@@H]2O[C@H](CO)[C@H](O)[C@H](n3cc(-c4ccc5scnc5c4)nn3)[C@H]2O)n(-c2cc(Cl)ccc2C(F)(F)F)n1 [Example A65] | 87 nM
8 | Cc1nc([C@@H]2O[C@H](CO)[C@H](O)[C@H](n3cc(-c4ccc5nccnc5c4)nn3)[C@H]2O)n(-c2cc(Cl)ccc2C(F)(F)F)n1 [Example A66] | 208 nM
9 | Cc1nc([C@@H]2O[C@H](CO)[C@H](O)[C@H](n3cc(-c4cc(F)c(F)c(F)c4)nn3)[C@H]2O)n(-c2cc(Cl)c(F)cc2Cl)n1 [Example A67] | 39 nM
10 | Cc1nc([C@@H]2O[C@H](CO)[C@H](O)[C@H](n3cc(-c4c(F)cc(Cl)cc4F)nn3)[C@H]2O)n(-c2cc(Cl)ccc2C(F)(F)F)n1 [Example A69] | 56 nM
11 | CO[C@@H]1[C@@H](n2cc(-c3ccc(Br)c(F)c3)nn2)[C@@H](O)[C@@H](CO)O[C@H]1c1nc(C)nn1-c1ccc2ncsc2c1 [Example A75] | 340 nM
12 | COc1cc(-c2cn([C@H]3[C@@H](O)[C@@H](CO)O[C@@H](c4nc(C)nn4-c4cc(Cl)ccc4C(F)(F)F)[C@@H]3O)nn2)ccc1Cl [Example A79] | 40 nM

More lines, in order of falling IC50, values ahead:

Row | IC50 | SMILES
13 | 291 nM | Cc1nc([C@@H]2O[C@H](CO)[C@H](O)[C@H](n3cc(-c4ccc5ncsc5c4)nn3)[C@H]2O)n(-c2cc(Cl)ccc2C(F)(F)F)n1 [Example A63]
14 | 172 nM | Cc1nc([C@@H]2O[C@H](CO)[C@H](O)[C@H](n3cc(-c4ncc(Cl)cc4Cl)nn3)[C@H]2O)n(-c2cc(Cl)ccc2C(F)(F)F)n1 [Example A62]
15 | 154 nM | Cc1nc([C@@H]2O[C@H](CO)[C@H](O)[C@H](n3cc(-c4cc(F)c5ncccc5c4)nn3)[C@H]2O)n(-c2cc(Cl)ccc2C(F)(F)F)n1 [Example A68]
16 | 52 nM | Cc1nc([C@@H]2O[C@H](CO)[C@H](O)[C@H](n3cc(-c4ccc(Cl)cc4F)nn3)[C@H]2O)n(-c2cc(Cl)ccc2C(F)(F)F)n1 [Example A52]
17 | 49 nM | Cc1nc([C@@H]2O[C@H](CO)[C@H](O)[C@H](n3cc(-c4ccc(Br)c(F)c4)nn3)[C@H]2O)n(-c2cc(Cl)cnc2C(F)(F)F)n1 [Example A71]
18 | 48 nM | Cc1nc([C@@H]2O[C@H](CO)[C@H](O)[C@H](n3cc(-c4cc(F)c(Cl)c(Cl)c4)nn3)[C@H]2O)n(-c2cc(Cl)ccc2Cl)n1 [Example A54]
19 | 42 nM | COc1ccc(C(F)(F)F)c(-n2nc(C)nc2[C@@H]2O[C@H](CO)[C@H](O)[C@H](n3cc(-c4cc(F)c(Cl)c(F)c4)nn3)[C@H]2O)c1 [Example A64]
20 | 15 nM | Cc1nc([C@@H]2O[C@H](CO)[C@H](O)[C@H](n3cc(-c4cc(F)c5ccccc5c4)nn3)[C@H]2O)n(-c2ccc3ncsc3c2)n1 [Example A70]
21 | 11 nM | Cc1nc([C@@H]2O[C@H](CO)[C@H](O)[C@H](n3cc(-c4ccc(Cl)c(F)c4F)nn3)[C@H]2O)n(-c2cc(Cl)ccc2Cl)n1 [Example A72]
22 | 10 nM | Cc1nc([C@@H]2O[C@H](CO)[C@H](O)[C@H](n3cc(-c4ccc(Cl)c(F)c4F)nn3)[C@H]2O)n(-c2cc(Cl)ccc2Br)n1 [Example A73]
